# Assay results published in ChEMBL document CHEMBL1781925, “HCV-NS3/4A protease inhibitory iridoid glucosides and dimeric foliamenthoic acid derivatives from Anarrhinum orientale” (J Nat Prod, 2011).
# Legend:
# [1] = Inhibition of Hepatitis C virus NS3/4A protease using Ac-Asp-Glu-Dap (QXLTM520)-Glu-Glu-Abu-COO-Ala-Ser-Cys(5-FAMsp)-NH2 as substrate after 30 mins by fluorometric assay; parameters: species or system Hepacivirus hominis
# Trypsin = Trypsin (Homo sapiens, UniProt P07477+P07478+P35030); test: Inhibition of human trypsin using hilyte fuor 488-labeled casein as substrate after 30 mins by green protease fluorometric assay; assay type: protein assay
SMILES,IC50 [1],IC50 (Trypsin)
C/C(=C\CO)CC/C=C(\C)C(=O)OC/C=C(\C)CC/C=C(\C)C(=O)O,126 µM,> 200 µM
CC(=O)OC/C=C(\C)CC/C=C(\C)C(=O)OC/C=C(\C)CC/C=C(\C)C(=O)O,> 200 µM,

# Results, then the compound that gave them:
IC50 [1],IC50 (Trypsin),SMILES
109 µM,> 200 µM,C[C@]1(OC(=O)/C=C/c2ccccc2)CC[C@@H]2C(C(=O)O)=CO[C@@H](O[C@@H]3O[C@H](CO)[C@@H](O)[C@H](O)[C@H]3O)[C@@H]21
125 µM,> 200 µM,C[C@]1(O[C@@H]2O[C@H](COC(=O)/C=C/c3ccccc3)[C@@H](O)[C@H](O)[C@H]2O)CC[C@@H]2C(C(=O)O)=CO[C@@H](O[C@@H]3O[C@H](COC(=O)/C=C/c4ccccc4)[C@@H](O)[C@H](O)[C@H]3O)[C@@H]21
100 µM,> 200 µM,C[C@]1(O)CC[C@@H]2C(C(=O)O)=CO[C@@H](O[C@@H]3O[C@H](COC(=O)/C=C/c4ccccc4)[C@@H](O)[C@H](O)[C@H]3O)[C@@H]21
